# Results reported in ChEMBL document CHEMBL1132666, “Significant compensatory role of position Y-2 conferring high affinity to non-phosphorylated inhibitors of Grb2-SH2 domain” (Bioorg Med Chem Lett, 1999).
# Molecular target: Growth factor receptor-bound protein 2 (Homo sapiens, UniProt P62993)
# Assay: Inhibitory activity against Growth factor receptor bound protein 2
row,SMILES,IC50 [µM]
1,CSCC[C@H]1NC(=O)CNC(=O)[C@@H](C(C)C)NC(=O)[C@@H](CC(N)=O)NC(=O)[C@@H](CCC(=O)O)NC(=O)[C@@H](Cc2ccc(O)cc2)NC(=O)[C@@H](CC(C)C)NC(=O)[C@@H](CCC(=O)O)NC(=O)CSC[C@H](C(N)=O)NC(=O)[C@@H](Cc2ccc(OP(=O)(O)O)cc2)NC1=O,0.13
2,CSCC[C@H]1NC(=O)CNC(=O)[C@@H](C(C)C)NC(=O)[C@@H](CC(N)=O)NC(=O)[C@@H](CCC(=O)O)NC(=O)[C@@H](Cc2ccc(O)cc2)NC(=O)[C@@H](CC(C)C)NC(=O)[C@@H](C)NC(=O)CSC[C@H](C(N)=O)NC(=O)[C@@H](Cc2ccc(OP(=O)(O)O)cc2)NC1=O,0.023
3,CSCC[C@H]1NC(=O)CNC(=O)[C@@H](C(C)C)NC(=O)[C@@H](CC(N)=O)NC(=O)[C@@H](CCC(=O)O)NC(=O)[C@@H](Cc2ccc(O)cc2)NC(=O)[C@@H](CC(C)C)NC(=O)[C@@H](CCC(=O)O)NC(=O)CSC[C@H](C(N)=O)NC(=O)[C@@H](Cc2ccc(O)cc2)NC1=O,20
4,CSCC[C@H]1NC(=O)CNC(=O)[C@@H](C(C)C)NC(=O)[C@@H](CC(N)=O)NC(=O)[C@@H](CCC(=O)O)NC(=O)[C@@H](Cc2ccc(O)cc2)NC(=O)[C@@H](CC(C)C)NC(=O)[C@@H](Cc2ccc(OP(=O)(O)O)cc2)NC(=O)CSC[C@H](C(N)=O)NC(=O)[C@@H](Cc2ccc(O)cc2)NC1=O,27.5
5,CSCC[C@H]1NC(=O)CNC(=O)[C@@H](C(C)C)NC(=O)[C@@H](CC(N)=O)NC(=O)[C@@H](CCC(=O)O)NC(=O)[C@@H](Cc2ccc(O)cc2)NC(=O)[C@@H](CC(C)C)NC(=O)[C@@H](CC(C(=O)O)C(=O)O)NC(=O)CSC[C@H](C(N)=O)NC(=O)[C@@H](Cc2ccc(O)cc2)NC1=O,0.64

# Results, then the molecule that gave them:
row,IC50 [µM],SMILES
1,3.45,CSCC[C@H]1NC(=O)CNC(=O)[C@@H](C(C)C)NC(=O)[C@@H](CC(N)=O)NC(=O)[C@@H](CCC(=O)O)NC(=O)[C@@H](Cc2ccc(O)cc2)NC(=O)[C@@H](CC(C)C)NC(=O)[C@@H](CCCC(=O)O)NC(=O)CSC[C@H](C(N)=O)NC(=O)[C@@H](Cc2ccc(O)cc2)NC1=O
2,100,CSCC[C@H]1NC(=O)CNC(=O)[C@@H](C(C)C)NC(=O)[C@@H](CC(N)=O)NC(=O)[C@@H](CCC(=O)O)NC(=O)[C@@H](Cc2ccc(O)cc2)NC(=O)[C@@H](CC(C)C)NC(=O)[C@@H](C)NC(=O)CSC[C@H](C(N)=O)NC(=O)[C@@H](Cc2ccc(O)cc2)NC1=O
3,64.5,CSCC[C@H]1NC(=O)CNC(=O)[C@@H](C(C)C)NC(=O)[C@@H](CC(N)=O)NC(=O)[C@@H](CCC(=O)O)NC(=O)[C@@H](Cc2ccc(O)cc2)NC(=O)[C@@H](CC(C)C)NC(=O)[C@@H](Cc2ccc(OC(C(=O)O)C(=O)O)cc2)NC(=O)CSC[C@H](C(N)=O)NC(=O)[C@@H](Cc2ccc(O)cc2)NC1=O
